The experiment has as its target T1, human Cereblon WT GST-tagged protein (Homo sapiens, UniProt Q96SW2).
T1 construct: purchased CISBIO 64BDCRBNPEH
Description: CRBN-binding affinity, HTRF (CEREBLON BINDING kit). Particulars: for inhibition at 0.5 µM: read-out: Inhibition Rate at 0.5 µM (%); for inhibition at 2 µM: read-out: Inhibition Rate at 2 µM (%). On the procedure:
The CEREBLON BINDING kits (specification: 10,000 tests; product number: Catalog # 64BDCRBNPEH; CISBIO company) was used to determine the CRBN binding ability of the compounds to be tested through a HTRF method (homogeneous time-resolved fluorescence). The specific methods are as follows: • 1. […] Specifically, diluent #9 (1X) solution was used as the diluent, and multiple concentration gradients were set. […] Then, 2.5 µL of human Cereblon WT GST-tagged protein solution was added to each well. Finally, 5 µL of the thoroughly mixed Thalidomide-Re reagent and GST Eu antibody working solution were added to each of the aforementioned wells. […] The blank control wells were sequentially added with 2.5 µL of diluent #9 (1X) solution, 2.5 µL of PROTAC binding buffer, and 5 µL of thoroughly mixed Thalidomide-Re reagent and GST Eu antibody working solution. • 4.
For orientation: TR-FRET usually uses a lanthanide donor and a delayed reading to cut background.

Each structure is given as a SMILES string.

T1 sequence (Q96SW2 whole entry): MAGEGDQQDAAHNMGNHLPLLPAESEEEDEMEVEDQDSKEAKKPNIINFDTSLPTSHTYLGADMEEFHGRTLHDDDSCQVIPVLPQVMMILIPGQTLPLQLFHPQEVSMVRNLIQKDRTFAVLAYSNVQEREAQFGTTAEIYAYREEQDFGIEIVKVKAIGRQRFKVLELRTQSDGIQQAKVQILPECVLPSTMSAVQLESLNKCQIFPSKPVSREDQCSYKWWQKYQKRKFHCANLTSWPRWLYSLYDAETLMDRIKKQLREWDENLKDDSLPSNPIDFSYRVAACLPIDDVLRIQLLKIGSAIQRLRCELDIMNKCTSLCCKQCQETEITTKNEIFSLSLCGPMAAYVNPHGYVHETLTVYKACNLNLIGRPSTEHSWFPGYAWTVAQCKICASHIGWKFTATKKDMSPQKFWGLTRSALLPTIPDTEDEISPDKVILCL

For `CC(C)c1cc2c(N3CCN(Cc4ccc5c(c4)CN(C4CCC(=O)NC4=O)C5=S)CC3)ncnc2s1` (stereo not shown) [GT-09284, 3-(5-((4-(6-isopropylthieno[2,3-d]pyrimidin-4-yl)piperazin-1-yl)methyl)-1-thioxoisoindolin-2-yl)piperidine-2,6-dione], the inhibition at 0.5 µM is 40 to 53% and the inhibition at 2 µM lay in the range of 80 to 100%.

With `O=C1CCC(N2Cc3cc(CN4CCN(c5ncncn5)CC4)ccc3C2=S)C(=O)N1` (stereo not shown) [GT-09249, 3-(5-((4-(1,3,5-triazin-2-yl)piperazin-1-yl)methyl)-1-thioxoisoindolin-2-yl)piperidine-2,6-dione], the inhibition at 0.5 µM fell in the range of 60 to 80% and the inhibition at 2 µM fell in the range of 80 to 100%.

As to `O=C1CCC(N2Cc3cc(CN4CCC(c5ncnc6sc(-c7ccccc7)cc56)CC4)ccc3C2=S)C(=O)N1` (stereo not shown) [GT-09306, 3-(5-((4-(6-phenylthieno[2,3-d]pyrimidin-4-yl)piperidin-1-yl)methyl)-1-thioxoisoindolin-2-yl)piperidine-2,6-dione], the inhibition at 0.5 µM was 40 to 53% and the inhibition at 2 µM was 80 to 100%.

Consider `O=C1CCC(N2Cc3c(CN4CCN(Cc5ccccc5-c5ccc(Cl)cc5)CC4)cccc3C2=S)C(=O)N1` (stereo not shown) [GT-08295, 3-(4-((4-((4'-chloro-[1,1'-biphenyl]-2-yl)methyl)piperazin-1-yl)methyl)-1-thioxoisoindolin-2-yl)piperidine-2,6-dione], for which the inhibition at 0.5 µM was 30 to 40% and the inhibition at 2 µM fell in the range of 60 to 80%.

As for `O=C1CCC(N2Cc3cc(CN4CCC(c5ccon5)CC4)ccc3C2=S)C(=O)N1` (stereo not shown) [GT-09256, 3-(5-((4-(isoxazol-3-yl)piperidin-1-yl)methyl)-1-thioxoisoindolin-2-yl)piperidine-2,6-dione], the inhibition at 0.5 µM fell in the range of 60 to 80% and the inhibition at 2 µM lay in the range of 80 to 100%.

Consider `O=C1CCC(N2Cc3c(CN4CC=C(c5cccs5)CC4)cccc3C2=S)C(=O)N1` (stereo not shown) [GT-08299, 3-(4-((4-(thiophen-2-yl)-3,6-dihydropyridin-1 (2H)-yl)methyl)-1-thioxoisoindolin-2-yl)piperidine-2,6-dione], for which the inhibition at 0.5 µM lay in the range of 53 to 60% and the inhibition at 2 µM is 60 to 80%.

For the molecule `Cc1ccc(N2CCN(Cc3ccc4c(c3)CN(C3CCC(=O)NC3=O)C4=S)CC2)c(C)c1` (stereo not shown) [GT-08614, 3-(5-((4-(2,4-dimethylphenyl)piperazin-1-yl)methyl)-1-thioxoisoindolin-2-yl)piperidine-2,6-dione], the inhibition at 0.5 µM is 30 to 40% and the inhibition at 2 µM fell in the range of 60 to 80%.

With `O=C1CCC(N2Cc3c(CN4CC5CCC4CN5C(c4ccccc4)c4ccccc4)cccc3C2=S)C(=O)N1` (stereo not shown) [GT-08233, 3-(4-((5-benzhydryl-2,5-diazabicyclo[2.2.2]octan-2-yl)methyl)-1-thioxoisoindolin-2-yl)piperidine-2,6-dione], the inhibition at 0.5 µM lay within 53 to 60% and the inhibition at 2 µM fell in the range of 80 to 100%.

As to `CC1(C)CC(c2ccc(Cl)cc2)=C(CN2CCN(Cc3cccc4c3CN(C3CCC(=O)NC3=O)C4=S)CC2)CO1` (stereo not shown) [GT-08296, 3-(4-((4-((4-(4-chlorophenyl)-6,6-dimethyl-5,6-dihydro-2H-pyran-3-yl)methyl)piperazin-1-yl)methyl)-1-thioxoisoindolin-2-yl)piperidine-2,6-dione], the inhibition at 0.5 µM is 40 to 53% and the inhibition at 2 µM is 60 to 80%.

As to `O=C1CCC(N2Cc3cc(CN4CCN(c5ccc(Cl)nn5)CC4)ccc3C2=S)C(=O)N1` (stereo not shown) [GT-09251, 3-(5-((4-(6-chloropyridazin-3-yl)piperazin-1-yl)methyl)-1-thioxoisoindolin-2-yl)piperidine-2,6-dione], the inhibition at 0.5 µM lay in the range of 60 to 80% and the inhibition at 2 µM was 80 to 100%.

Turning to `Cc1sc2ncnc(N3CCN(Cc4ccc5c(c4)CN(C4CCC(=O)NC4=O)C5=S)CC3)c2c1C` (stereo not shown) [GT-09285, 3-(5-((4-(5,6-dimethylthieno[2,3-d]pyrimidin-4-yl)piperazin-1-yl)methyl)-1-thioxoisoindolin-2-yl)piperidine-2,6-dione], the inhibition at 0.5 µM lay in the range of 80 to 100% and the inhibition at 2 µM was 80 to 100%.

The inhibition is the change of the read-out against control, counted positive when it falls.

Values taken from patent EP4745135A1 (Gluetacs Therapeutics (Shanghai) Co., Ltd., priority 2023, dated 2025).
